Consider seven compounds from US20230381142A1, “ANTILEISHMANIAL COMPOUNDS, COMPOSITIONS AND USE THEREOF” (TRUSTEES OF BOSTON UNIVERSITY, priority 2022, published 2023).

One data set concerns B10R cells. Description: UCSD infection assay, host cell cytotoxicity (CC50). To be noted: host B10R cells. The format is cell-based.
Data set [1] relates to L. donovani intracellular amastigotes infecting THP-1 cells. Description: High content intracellular amastigote assay in THP-1 cells (Assay Conditions B; CDIPD screen). It counts as cell-based, Leishmania donovani. To be noted: 10 μM; THP-1 cells; footnote b. On the procedure:
(§1) Assay Conditions B: THP-1 cells (human acute monocytic leukemia cell line—ATCC TIB202) were grown in RPMI supplemented with 10% Fetal Bovine Serum (FBS) and 50 μM 2-mercaptoethanol at 37° C. in 5% CO2. THP-1 were seeded in microwell plates at 5×10^5 cells/mL density and treated with 0.1 μM phorbol myristate acetate (PMA, Sigma) at 37° C. for 48 h for differentiation into adherent, non-dividing macrophages. After activation by PMA, cells were washed and incubated with complete RPMI medium containing stationary phase Leishmania promastigotes (L. major: strain LV39; L. donovani, strain 1S/Cl2D) at a 1:15 parasite-cell ratio. Compounds were added and incubated at 37° C. for 72 h. Cells were then washed with phosphate-buffered saline (PBS), fixed for 30 minutes with 4% formaldehyde, rinsed again with PBS, stained for 2 h with 4′,6′-diamidino-2-phenylindole (DAPI 300 nM) and finally washed with PBS. In a collaborative effort to identify new antileishmanial chemotypes with minimal host cell cytotoxicity, compounds from the Boston University Center for Molecular Discovery (BUCMD) screening collection were assessed in a phenotypic, high content primary screen at the University of California's Center for Discovery and Innovation in Parasitic Diseases (CDIPD) for the ability to inhibit growth of L. donovani intracellular amastigotes infecting THP-1 cells. […] Dose-response testing in L. donovani (both intracellular amastigotes and promastigotes) confirmed concentration-dependent growth inhibition of both morphologies of the parasite at low micromolar EC50 values for both compounds (Table 1).

The subject of data set [2] is L. major (strain LV39) intracellular amastigotes infecting THP-1 cells. Description: High content intracellular amastigote assay in THP-1 cells (Assay Conditions B). The format is cell-based, Leishmania major. To be noted: THP-1 cells; values marked b. As for the experimental part:
as §1

In data set [3] the test system is L. donovani promastigotes (strain 1S/Cl2D). Description: Promastigote assay, CellTiter-Glo (Assay Conditions F). The settings on record: Leishmania donovani; footnote f; read-out: L. donovani promastigotes EC50. It counts as cell-based. On the procedure:
(§2) Assay Conditions F: Leishmania promastigotes (L. major: strain LV39; L. donovani, strain 1S/Cl2D) were maintained as previously described in PloS Negl Trop Dis (2015) 9(3):e0003588 and Pathogens (2021) 10(5):593) at 28° C. in M199 media supplemented with glutamine, adenosine, folic acid, hemin, HEPES, 10% Fetal Bovine Serum (Sigma-Aldrich, cat. no. F2442) and 1% Penicillin-Streptomycin (Gibco, cat. no. 15140122). For the promastigote assay, we followed the method previously described in PloS Negl Trop Dis (2011) 5(7):e1253. Briefly, promastigotes were incubated with the compounds for 72 h at 27° C., then lysed by adding 50 μL of CellTiter-Glo (Promega) and placed on an orbital shaker for 5 min at room temperature. After lysis, the resulting ATP-bioluminescence was measured using the Analyst HT plate reader (Molecular Devices).
In general terms: In ATP-based viability assays light output follows the ATP content of the culture.

The test system of data set [4] is L. major promastigotes (strain LV39). The description is as above. It counts as cell-based. To be noted: Leishmania major; footnote f; read-out: L. major promastigotes EC50. On the procedure:
as §2

The next data set has as its system THP-1 cells. Description: Host THP-1 cell cytotoxicity in the CDIPD high content screen. The format is cell-based, human. The settings on record: Homo sapiens, THP-1; 10 μM; footnote b; read-out: THP-1 host cell % growth inhibition at 10 μM. As for the experimental part: as §1
Data set [5] concerns L. donovani intracellular amastigotes infecting THP-1 macrophages. Description: GSK intramacrophage L. donovani assay (LD AMMAC, inMac; Assay Conditions C). It counts as cell-based. To be noted: Leishmania donovani; THP-1 cells; values marked c; read-out: L. donovani amastigotes EC50 (THP-1 cells). The gist of the method:
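EC50 values come from counting amastigotes per infected THP-1 macrophage (AMMAC). Parallel read-outs give percentage of infected cells per well (INFCELL) and a macrophage-number toxicity EC50 (MAC).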

Data set [6] is described as follows: GSK inMac assay, host cell toxicity readout (LD MAC). It counts as cell-based, human. The settings on record: human; footnote c; read-out: THP-1 Host Cell CC50. Put shortly:
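MAC EC50 reflects THP-1 host cell counts, measured within GSK's inMac L. donovani infection assay that also scores intracellular amastigotes and infected-cell percentage.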

The subject of data set [7] is L. donovani intracellular amastigotes in B10R cells. Description: UCSD L. donovani infection assay (Assay Conditions D). The format is cell-based. To be noted: B10R cells; for L. donovani amastigotes EC75 (B10R cells): footnote d; for EC50: Leishmania donovani, values marked d, read-out: L. donovani amastigotes EC50 (B10R cells). The gist of the method: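 Compounds, either single-point at 10 μM or 10-point 2-fold series (3 technical, 2 biological replicates), were incubated 72 h at 37° C. with B10R host cells co-seeded with day-7 stationary L. donovani promastigotes (20:1). DAPI-stained nuclei imaging yielded intracellular parasite EC50 and host-cell CC50.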

In data set [8] the test system is L. braziliensis (strain BA788) in J774 cells. Description: J774 luciferase infection assay (Assay Conditions E). The format is cell-based, Leishmania braziliensis. To be noted: footnote e. As for the experimental part:
(§3) Assay Conditions E: J774 cells (ATCC J774A.1 were grown in DMEM supplemented with 10% Fetal Bovine Serum (FBS) and 1% Penicillin-Streptomycin at 37° C. in 5% CO2. Leishmania parasites expressing luciferase and GFP were grown as described in Front. Cell. Infect. Microbiol (2019) 9:237. J774 cells were seeded in microwell plates at 3×10^5 cells/mL density. Cells were washed with PBS and incubated with complete DMEM medium containing stationary phase Leishmania promastigotes (L. major: strain Friedlin; L. braziliensis, strain BA788) at a 1:10 parasite-cell ratio for 24 h. Cells were washed with PBS. Cells and compounds were incubated for 48 h at 37° C. and 5% C02. Compounds were tested in 8-point 2-fold serial dilution in 4 technical replicates, and 2 biological replicates. After 48 h, OneTiterGlo (Promega) (100 μl) was added to each well. Plates were incubated for 15 min and bioluminescence was measured using a plate reader (Molecular Devices). Effective concentration inducing 75% activity (EC75) was calculated using GraphPad Prism Software (version 9.0).

For data set [9], the system named is L. braziliensis-infected macrophages. Description: Macrophage (BMDM) infection with L. braziliensis and exposure to CMLDs. It counts as cell-based, Leishmania braziliensis. The settings on record: for number of amastigotes per 100 macrophages / percentage of infected macrophages / EC50: 24 h exposure; for EC50: Leishmania braziliensis, Macrophage, percentage of infected macrophages, read-out: EC50 against L. braziliensis-infected macrophages. As for the experimental part:
Leishmania braziliensis (MIHOM/BR/00/BA788) and L. major (Friedlin) promastigotes were maintained in Schneider's medium (SIGMA) supplemented with 10% heat-inactivated FCS, 100 U/ml penicillin, 100 μg/ml streptomycin (all from Invitrogen).
BMDM were obtained as described above. Cells were resuspended in DMEM medium supplemented with 100 U/mL penicillin, […] streptomycin, and 10% heat-inactivated Fetal Bovine Serum (all from Invitrogen) and seeded at a density of 3×10^5 cells per well in 24-well culture plates. Monolayers received 3×10^6 cells L. braziliensis promastigotes and were incubated at 37° C. in supplemented DMEM medium for 24 h. Infected macrophages were then washed to remove non-internalized parasites. Compounds CMLD 011128, CMLD010947, CMLD010498, and CMLD011494 were added at different concentrations. After 24 hours, cells were extensively washed, fixed and stained with hematoxylin and eosin (H&E). The number of infected cells and of intracellular amastigotes were counted by optical microscopy in 200 macrophages. Positive controls consisted of cultures treated with Amphotericin B (0.25 μg/mL, Invitrogen). Cultures were performed in quintuplicate. Alternatively, infected macrophages were treated as described, monolayers were extensively washed and the medium was replaced by 0.5 ml of supplemented Schneider medium. Cells were cultured for seven additional days at 26° C., when number of viable promastigotes was determined using hemocytometer.
Results were expressed as the mean percentage reduction of infected cells compared with untreated control wells. Half-maximal effective concentrations (EC50) were determined by sigmoidal regression curves using Prism 7.0 software (GraphPad Software Inc.)

Data set [10] concerns L. major-infected murine macrophages. Description: Macrophage infection with L. major and exposure to CMLDs. The settings on record: for number of intracellular amastigotes / percentage of infected cells: L. major, only observed at the highest dose (1 μM). It counts as cell-based, Leishmania major.
For data set [11], the system named is macrophages from bone marrow. Description: Cellular viability of macrophages (Cell Titer Glo). The format is cell-based, murine. To be noted: 500-1000 nM, 24 h. On the procedure:
Briefly, macrophages were obtained from bone marrow and seeded at a density of 1×10^6 cells per well in 24-well culture plates. After 2 hours, cells were treated with compounds at two concentrations (500 and 1000 nm) for 24 hours. Cell viability was determined using Cell Titer Glo (Promega), according to manufacturer's instructions. For positive control, pararosaniline chloride was used.

A short description of data set [12]: UCSD infection assay, host cell cytotoxicity (CC50). To be noted: mouse, B10R host cells infected with L. donovani; footnote d. The format is cell-based.
The subject of data set [13] is L. major (strain Friedlin) in J774 cells. Description: J774 luciferase infection assay (Assay Conditions E). The format is cell-based, Leishmania major. The settings on record: values marked e. As for the experimental part:
as §3

Data set [14] concerns L. donovani intracellular amastigotes infecting THP-1 macrophages. The settings on record: GlaxoSmithKline Phase I VL candidates; read-out: intramacrophage EC50; cited from earlier work.

Like-named read-outs stand apart in the source and are kept apart here. Marks after values point to notes of the source that are not given here.

With `COc1ncccc1C1c2c(CC(C)C)n[nH]c2C(=O)N1c1ccc2ncnn2c1` (stereo not shown) [BUCMD00162], the “B10R Host Cell CC50” value with B10R cells is above 10000 nM.

Take `COc1ccc(N2C(=O)c3[nH]nc(CC(C)C)c3C2c2ccccc2)cc1` (stereo not shown) [CMLD007427]: in data set [1], the “L. donovani amastigotes % GI at 10 μM (THP-1 cells)” value is given as 100.0%. Also, the “L. major amastigotes EC75 (THP-1 cells)” value in data set [2] is recorded as 1.7^b μM. The EC50 came out at 2400 nM in data set [3], 4200 nM in [4] and 3200 nM in [5]. In the data set on THP-1 cells, the inhibition at 10 µM is 11%. Also, the CC50 in data set [6] was 31600 nM. The “L. donovani amastigotes EC75 (B10R cells)” value (from here on “L. donovani amastigotes EC75”) in data set [7] is 1100 nM.

On to `COc1ccc(N2C(=O)c3[nH]nc(CC(C)C)c3C2c2ccc(F)cc2)cc1` (stereo not shown) [CMLD007431], for which the “L. donovani amastigotes % GI at 10 μM (THP-1 cells)” value in [1] was 99.0%. Further, in [2], the “L. major amastigotes EC75 (THP-1 cells)” value is given as 1.3^b μM. Moreover, the EC50 in [3] came to 2000 nM; in [4], 4400 nM; in data set [5] it was 2500 nM. The inhibition at 10 µM in the data set with THP-1 cells is 13%. The CC50 in data set [6] is above 20000 nM. In data set [7], the “L. donovani amastigotes EC75” value worked out at 1000 nM.

As to `Cc1cc(F)ccc1C1c2c(CC(C)C)n[nH]c2C(=O)N1c1ccc2ncnn2c1` (stereo not shown) [CMLD010948], in data set [6], the CC50 was above 20000 nM. In addition, in [7], the “L. donovani amastigotes EC75” value worked out at 1100 nM and the EC50 was determined as 900 nM. For the same compound, in [8], the “L. braziliensis amastigotes EC75 (J774 cells)” value turned out to be 5500 nM. Besides, in data set [9], the “leishmanicidal effect on L. braziliensis infection in vitro” value is reported as “reduces L. braziliensis infection” and the EC50 is above 5000 nM. Also, in [9] (L. braziliensis), the “number of amastigotes per 100 macrophages” value was “significant decrease” and the “percentage of infected macrophages” value is “significant decrease”. Also, in data set [10], the “L. major infection in vitro” value was “reduce L. major infection”, the “number of intracellular amastigotes” value is listed as “significant decreased” and the “percentage of infected cells” value is “significant decreased”. Also, in data set [11], the “cell viability of macrophages” value is recorded as “did not change cell viability”.

On to `COc1cc(F)ccc1C1c2c(CC(C)C)n[nH]c2C(=O)N1c1ccc(Br)cc1` (stereo not shown) [CMLD011494], for which the CC50 in data set [6] was found to be 4000 nM. Also, in data set [7], the “L. donovani amastigotes EC75” value was found to be 100 nM and the EC50 is 100 nM. This compound had a CC50 at 72 h in data set [12] of 3980 nM. In data set [13], the “L. major amastigotes EC75 (J774 cells)” value is 2.8^e μM. The “L. braziliensis amastigotes EC75 (J774 cells)” value in [8] turned out to be 5200 nM. In [9], the “leishmanicidal effect on L. braziliensis infection in vitro” value is “reduces L. braziliensis infection” and the EC50 stood at 1640 nM. In data set [9] (L. braziliensis), the “number of amastigotes per 100 macrophages” value is “significantly reduced” and the “percentage of infected macrophages” value is “significantly reduced”. Further, in data set [9] (L. braziliensis, culture in Schneider medium), the “number of viable promastigotes after exposure of infected BMDM” value is listed as “significantly reduced”. In addition, in data set [10], the “L. major infection in vitro” value is given as “reduce L. major infection”, the “number of intracellular amastigotes” value is on record as “significant decreased” and the “percentage of infected cells” value was “significant decreased”. The “cell viability of macrophages” value in data set [11] was “did not change cell viability”.

Regarding `C[C@H]1CN(c2n[nH]c3nc(N[C@H]4CC[C@H](NS(=O)(=O)CCC(F)(F)F)CC4)ncc23)CCO1` [GSK3186899], in data set [14], the EC50 was 1400 nM.

For `O=C(Nc1ccc(F)c(-c2ccn3c(N4CCOCC4)cnc3n2)c1)N1CCCC1` [GSK3494245], the EC50 in [14] was 1600 nM.

A word on the EC50: it is the concentration that produces a half-maximal response. The term inhibition denotes the percentage by which the read-out fell short of the control. For orientation: CC50 means the concentration giving 50% cytotoxicity.
